Measurements published in patent US11447511B2, “Dioxolane analogues of uridine for the treatment of cancer” (MEDIVIR AB, priority 2014, dated 2022).

Key:
[1] = Stability in human liver S9 fraction (HLS9); format: in vitro ADME; conditions: human liver S9 0.4 mg protein/mL, 5 μM test compound, 37° C.; for microsomal CLint at 5 μM: liver S9 fraction, pH 7.4
Method: (§1) Stability in Human Intestinal S9 Fraction (HIS9) and in Human Liver S9 Fraction (HLS9),
(§2) Stock solutions of each test compound (10 mM) were prepared in DMSO and stored at −20° C. Prior to the start of the experiment, the test compounds were diluted to 500 μM in 50% acetonitrile in water. The reaction mixture was prepared in a total volume of 250 μL containing 5 mM MgC2, 1 mM NADPH and 5 μM test compound in 50 mM potassium phosphate buffer (pH 7.4). The reaction was initiated by addition of human liver or intestinal S9 fraction with a final concentration of 0.4 mg protein/mL (Xeno Tech). The reaction mixture was incubated on an orbital shaker at 37° C. At the desired time points (0, 10, 30 and 60 minutes) aliquots of 50 μL were taken and the reaction was stopped by mixing with 150 μL acetonitrile containing internal standard. Standard solutions of each test compound were prepared from the 500 μM solution by diluting the solution to a final concentration of 5 μM in boiled human S9 (0.4 mg protein/mL), 5 mM MgCl2 and 50 mM potassium phosphate buffer (pH 7.4). The standards and samples were kept on ice for 30 min then centrifuged at 3 000 g for 20 minutes at 10° C., there after 10 μL of supernatant was mixed with 200 μL 50% acetonitrile in water. 0.5 μM of each test compound in 50% acetonitrile in water was injected into the LC/MS-MS to determine the daughter ion, declustring potential (DP), collision energy (CE) and collision cell exit potential (CXP) in order to develop a LC/MS-MS method. The compounds were separated using a C18 column with a QTRAP5500 system. The mobile phase consisted of solvent A (98% water, 2% acetonitrile, 0.1% acetic acid or 10 mM ammonium acetate) and solvent B (80% acetonitrile, 20% water, 0.1% acetic acid or 10 mM ammonium acetate). Elution of the compounds was performed by using a gradient of solvent B from 0% to 100%. 5 μL of standard points and samples were injected for analysis with QTRAP5500.
(§3) The amount of parent compound was determined on the basis of the peak area for each time point compared to standard which was set to 5 μM. Intrinsic clearance (CLint) and half-life (t1/2) were determined from the disappearance curves of the test compound using Excel software.

[2] = Stability in human intestinal S9 fraction (HIS9); format: in vitro ADME; conditions: human intestinal S9 0.4 mg protein/mL, 5 μM test compound, 37° C.; for microsomal CLint at 5 μM: intestinal S9 fraction, pH 7.4
Method: as §1, §2, §3

Huh7 = assay: Cell cytotoxicity assay, HUH7; format: cell-based; conditions: Huh7 cells, 5 days at 37° C., XTT dye
Method: (§4) Cells were seeded 24 hours prior to compound addition. Each test compound (serially diluted from 100 μM) was added to Huh7 (1.5×10^4 cells/well) or HepG2 (1.5×10^4 cells/well), and allowed to incubate for 5 days at 37° C. A medium only control was used to determine the minimum absorbance value and an untreated cell value. At the end of the growth period, XTT dye from Polysciences Europe GmbH was added to each well. The absorbance at 450 nm with a reference wavelength of 600 nm was read with a Sunrise (Tecan) using the medium only control wells as blanks. The 50% inhibition value (CC50) was determined by comparing the degree of inhibition (compared to cell control) plotted against compound concentration. Results from the dilution series were fitted to a sigmoidal dose-response curve.
(§5) Compounds of the invention were evaluated in these assays to assess the stability in human intestinal S9 fraction (HIS9) and human liver S9 fraction (HLS9), and for Cell Cytotoxicity in HUH7, HEP3B and HEPG2 cells.

HepG2 = assay: Cell cytotoxicity assay, HEPG2; format: cell-based; conditions: HepG2 cells, 5 days at 37° C., XTT dye
Method: as §4, §5

| Structure (SMILES) | CLint Liver S9 [1] | CLint Intestinal S9 [2] | CC50 (Huh7) | CC50 (HepG2) | microsomal CLint at 5 μM [1] | microsomal CLint at 5 μM [2] |
| --- | --- | --- | --- | --- | --- | --- |
| CC[C@@H](C)OC(=O)[C@H](C)NP(=O)(OC[C@H]1OC[C@@H](n2ccc(N)nc2=O)O1)Oc1cccc(C2CCC2)c1 (single isomer, unassigned; dia-2) [33 dia-2] | 230 µL/min/mg | 75 µL/min/mg |  |  |  |  |
| C[C@H](NP(=O)(OC[C@H]1OC[C@@H](n2ccc(N)nc2=O)O1)Oc1cccc2ccccc12)C(=O)OCc1ccccc1 (single isomer, unassigned; dia-1) [9 dia-1] | 133 µL/min/mg | 171 µL/min/mg | 164 nM | 23 nM |  |  |
| CC[C@@H](C)OC(=O)[C@H](C)NP(=O)(OC[C@H]1OC[C@@H](n2cc(F)c(N)nc2=O)O1)Oc1ccccc1 (single isomer, unassigned) [32 dia-2] |  |  |  |  | 27 µL/min/mg | 8 µL/min/mg |
| Nc1ccn([C@@H]2CO[C@H](COP(=O)(N[C@@H](Cc3ccccc3)C(=O)OCc3ccccc3)Oc3cccc(C4CC4)c3)O2)c(=O)n1 (single isomer, unassigned; dia-1) [12 dia-1] | 182 µL/min/mg | 300 µL/min/mg | 4330 nM | 481 nM |  |  |
| CC(C)OC(=O)[C@H](C)NP(=O)(OC[C@H]1OC[C@@H](n2ccc(N)nc2=O)O1)Oc1cccc2ccccc12 (single isomer, unassigned; dia-2) [5 dia-2] | 31 µL/min/mg | 13 µL/min/mg | 602 nM | 114 nM |  |  |
| CC(C)OC(=O)[C@@H](C)NP(=O)(OC[C@H]1OC[C@@H](n2ccc(N)nc2=O)O1)Oc1ccccc1 (single isomer, unassigned; dia-2) [17 dia-2] | 6 µL/min/mg |  | 50000 nM |  |  |  |
| CCCC(CCC)COC(=O)[C@H](C)NP(=O)(OC[C@H]1OC[C@@H](n2ccc(N)nc2=O)O1)Oc1cccc2ccccc12 (single isomer, unassigned; dia-1) [14 dia-1] | 88 µL/min/mg | 30 µL/min/mg | 216 nM | 16 nM |  |  |
| CCCCCCCCCCCCCCCC(=O)Nc1ccn([C@@H]2CO[C@H](COP(=O)(N[C@@H](C)C(=O)OC(C)C)Oc3ccccc3)O2)c(=O)n1 (single isomer, unassigned; dia-2) [35 dia-2] | 34 µL/min/mg | 51 µL/min/mg | 11 nM | 7 nM |  |  |
| C[C@H](NP(=O)(OC[C@H]1OC[C@@H](n2ccc(N)nc2=O)O1)Oc1cccc2ccccc12)C(=O)OC1CCCCC1 (single isomer, unassigned; dia-1) [6 dia-1] | 91 µL/min/mg | 36 µL/min/mg | 258 nM | 92 nM |  |  |
| CCCC(CCC)COC(=O)C(Cc1ccccc1)NP(=O)(OCC1OCC(n2ccc(N)nc2=O)O1)Oc1ccccc1 (mixture of isomers) [13 diamix 4:1] | 85 µL/min/mg | 27 µL/min/mg | 663 nM | 163 nM |  |  |
| CC(C)OC(=O)[C@H](C)NP(=O)(OC[C@H]1OC[C@@H](n2ccc(N)nc2=O)O1)Oc1cccc2ccccc12 (single isomer, unassigned; dia-1) [5 dia-1] | 32 µL/min/mg | 21 µL/min/mg | 465 nM | 107 nM |  |  |
| CCC(CC)OC(=O)[C@H](C)NP(=O)(OC[C@H]1OC[C@@H](n2ccc(N)nc2=O)O1)Oc1ccccc1 (single isomer, unassigned; dia-1) [21 dia-1] | 61 µL/min/mg | 29 µL/min/mg | 574 nM | 163 nM |  |  |
| Nc1ccn([C@@H]2CO[C@H](COP(=O)(N[C@@H](Cc3ccccc3)C(=O)OCc3ccccc3)Oc3cccc(C4CC4)c3)O2)c(=O)n1 (single isomer, unassigned; dia-2) [12 dia-2] | 97 µL/min/mg | 300 µL/min/mg | 5020 nM | 1090 nM |  |  |
| CCC(CC)OC(=O)[C@H](C)NP(=O)(OC[C@H]1OC[C@@H](n2ccc(N)nc2=O)O1)Oc1ccccc1 (single isomer, unassigned; dia-2) [21 dia-2] | 22 µL/min/mg | 10 µL/min/mg | 70 nM | 48 nM |  |  |
| C[C@H](NP(=O)(OC[C@H]1OC[C@@H](n2ccc(N)nc2=O)O1)Oc1cccc2ccccc12)C(=O)OC1CCCCC1 (single isomer, unassigned; dia-2) [6 dia-2] | 61 µL/min/mg | 25 µL/min/mg | 316 nM | 48 nM |  |  |
| CCCC(CCC)COC(=O)[C@H](C)NP(=O)(OC[C@H]1OC[C@@H](n2ccc(N)nc2=O)O1)Oc1cccc2ccccc12 (single isomer, unassigned; dia-2) [14 dia-2] | 159 µL/min/mg | 59 µL/min/mg | 200 nM | 12 nM |  |  |
| Nc1ccn([C@@H]2CO[C@H](COP(=O)(N[C@@H](Cc3ccccc3)C(=O)OC3CCCCC3)Oc3ccc(Br)cc3)O2)c(=O)n1 (single isomer, unassigned; dia-2) [7 dia-2] | 60 µL/min/mg | 27 µL/min/mg | 134 nM | 58 nM |  |  |
| CCCC(CCC)COC(=O)[C@H](C)NP(=O)(OC[C@H]1OC[C@@H](n2ccc(N)nc2=O)O1)Oc1ccccc1 (single isomer, unassigned; dia-1) [8 dia-1] |  |  | 123 nM | 7 nM |  |  |
| C[C@H](NP(=O)(OC[C@H]1OC[C@@H](n2ccc(N)nc2=O)O1)Oc1ccccc1)C(=O)OCc1ccccc1 (single isomer, unassigned; dia-1) [19 dia-1] | 19 µL/min/mg | 26 µL/min/mg | 91 nM | 18 nM |  |  |
| C[C@H](NP(=O)(OC[C@H]1OC[C@@H](n2ccc(N)nc2=O)O1)Oc1cccc2ccccc12)C(=O)OC1CCCC1 (single isomer, unassigned; dia-2) [22 dia-2] | 43 µL/min/mg | 34 µL/min/mg | 40 nM | 11 nM |  |  |
| C[C@H](NP(=O)(OC[C@H]1OC[C@@H](n2ccc(N)nc2=O)O1)Oc1cccc2ccccc12)C(=O)OCc1ccccc1 (single isomer, unassigned; dia-2) [9 dia-2] | 94 µL/min/mg | 127 µL/min/mg | 158 nM | 16 nM |  |  |
| CC[C@@H](C)OC(=O)[C@H](C)NP(=O)(OC[C@H]1OC[C@@H](n2ccc(N)nc2=O)O1)Oc1cccc(C2CCC2)c1 (single isomer, unassigned; dia-1) [33 dia-1] | 180 µL/min/mg | 27 µL/min/mg |  |  |  |  |
| CCCC(CCC)COC(=O)[C@H](C)NP(=O)(OC[C@H]1OC[C@@H](n2ccc(N)nc2=O)O1)Oc1ccc(Br)cc1 (single isomer, unassigned; dia-2) [23 dia-2] | 300 µL/min/mg | 20 µL/min/mg |  |  |  |  |
| CC[C@H](C)OC(=O)[C@H](C)NP(=O)(OC[C@H]1OC[C@@H](n2ccc(N)nc2=O)O1)Oc1ccccc1 (single isomer, unassigned) [31 dia-2] |  | 6 µL/min/mg |  |  | 8 µL/min/mg |  |
| CCC[C@@H](C)OC(=O)[C@H](C)NP(=O)(OC[C@H]1OC[C@@H](n2ccc(N)nc2=O)O1)Oc1ccccc1 (single isomer, unassigned) [30 dia-2] |  |  |  |  | 120 µL/min/mg | 11 µL/min/mg |
